ChEMBL document CHEMBL1153933, “Selective inhibition of Pfmrk, a Plasmodium falciparum CDK, by antimalarial 1,3-diaryl-2-propenones” (Bioorg Med Chem Lett, 2009)

Assays:
Protein kinase Pfmrk = target: T1, Protein kinase Pfmrk (Plasmodium falciparum, UniProt P90584); test: Inhibition of His6x-tagged Plasmodium falciparum Pfmrk expressed in Escherichia coli by microtiter plate scintillation counting
T1 sequence (P90584 whole entry): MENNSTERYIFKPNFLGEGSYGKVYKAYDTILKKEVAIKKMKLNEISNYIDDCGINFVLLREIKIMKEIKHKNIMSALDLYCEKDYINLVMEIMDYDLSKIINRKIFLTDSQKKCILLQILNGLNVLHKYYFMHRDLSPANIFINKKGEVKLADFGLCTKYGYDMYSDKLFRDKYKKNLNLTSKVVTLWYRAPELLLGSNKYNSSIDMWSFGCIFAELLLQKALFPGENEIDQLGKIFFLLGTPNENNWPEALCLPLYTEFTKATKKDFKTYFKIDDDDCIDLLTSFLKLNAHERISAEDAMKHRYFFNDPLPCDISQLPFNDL

[1] = Inhibition of His6x-tagged Plasmodium falciparum PfPK5 expressed in Escherichia coli by microtiter plate scintillation counting
Plasmodium falciparum [2] = test: Antimalarial activity after 24 hrs against chloroquine-sensitive Plasmodium falciparum D6 by [3H]hypoxanthine uptake; assay type: functional, organism-based
Plasmodium falciparum [3] = test: Antimalarial activity after 24 hrs against chloroquine-resistant Plasmodium falciparum W2 by [3H]hypoxanthine uptake; assay type: functional, organism-based

SMILES	IC50 (Protein kinase Pfmrk) [µM]	IC50 [1] [µM]	IC50 (Plasmodium falciparum [2]) [µM]	IC50 (Plasmodium falciparum [3]) [µM]
COc1ccc(C(=O)/C=C/c2ccc3ccccc3c2)c(OC)c1OC	19	> 100		
C/C(=C\C(=O)c1cccc([N+](=O)[O-])c1)c1cccc([N+](=O)[O-])c1	> 256	> 256	8.3	8.2
COc1ccc(C(=O)/C=C/c2ccncc2)c(OC)c1OC	9	> 100	2.8	3.2
O=C(/C=C/c1ccccc1)c1cccc([N+](=O)[O-])c1		> 316	> 19.8	> 19.8
COc1ccc(C(=O)/C=C/c2cccc3ccccc23)cc1	> 100	> 100		
Cc1ccc(C(=O)/C=C/c2ccccc2)cc1	20	> 360	11.7	11.5
O=C(/C=C/c1ccccn1)c1ccccc1 [WR-190433]	22	> 382		
COc1ccc(C(=O)/C=C/c2cccnc2)c(OC)c1OC	38	> 100	3.2	3.9
COc1ccc(C(=O)/C=C/c2cccc3ccccc23)c(OC)c1	1.3	> 100		
CC(=O)Nc1ccc(C(=O)/C=C/c2ccccc2)cc1		> 302	10.9	9.9
CCOC(=O)/C(=C\c1ccccn1)C(=O)c1cccc([N+](=O)[O-])c1	61	123		
COc1ccc(C(=O)/C=C/c2ccncc2)cc1	8.2	100	12	12.2
COc1ccc(C(=O)/C=C/c2cccc3ccccc23)c(OC)c1OC	50	> 100		
COc1ccc(C(=O)/C=C/c2ccccn2)cc1	12	> 100	7.1	10.5
N#Cc1ccc(C(=O)/C=C/c2ccc(Cl)cc2)cc1	> 100	> 299	> 18.2	10.5
COc1ccc(C(=O)/C=C/c2ccccn2)c(OC)c1OC	34	> 100	2.5	2.3
O=C(/C=C/c1ccc([N+](=O)[O-])cc1)c1cccc([N+](=O)[O-])c1	268	> 268	> 16.8	> 16.8
COc1ccc(C(=O)/C=C/c2ccc3ccccc3c2)c(OC)c1	100			
O=C(/C=C/c1ccccn1)c1cccc([N+](=O)[O-])c1	18	> 315	11	> 19.7
